Data taken from BindingDB's records for doi:10.1021/jm050792d (University of Naples Federico II, 2005).

What was measured:
[1] = target: Adenosine receptor A2a (Homo sapiens, UniProt P29274); test: Displacement of [3H]NECA from human adenosine A2A receptor expressed in CHO cells
[2] = target: T1, Adenosine receptor A1 (Homo sapiens, UniProt P30542); test: Displacement of [3H]DPCPX from human adenosine A1 receptor expressed in CHO cells
T1 sequence (P30542 whole entry): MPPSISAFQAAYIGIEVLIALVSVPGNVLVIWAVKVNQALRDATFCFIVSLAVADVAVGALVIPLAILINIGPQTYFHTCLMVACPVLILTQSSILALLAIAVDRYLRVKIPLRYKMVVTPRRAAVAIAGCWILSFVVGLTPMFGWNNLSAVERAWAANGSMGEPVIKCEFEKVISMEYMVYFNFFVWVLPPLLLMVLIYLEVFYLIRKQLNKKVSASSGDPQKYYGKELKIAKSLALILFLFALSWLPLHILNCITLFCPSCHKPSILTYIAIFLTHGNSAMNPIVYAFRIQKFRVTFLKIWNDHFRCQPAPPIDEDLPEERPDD

Chain of Adenosine receptor A2a (P29274 whole entry): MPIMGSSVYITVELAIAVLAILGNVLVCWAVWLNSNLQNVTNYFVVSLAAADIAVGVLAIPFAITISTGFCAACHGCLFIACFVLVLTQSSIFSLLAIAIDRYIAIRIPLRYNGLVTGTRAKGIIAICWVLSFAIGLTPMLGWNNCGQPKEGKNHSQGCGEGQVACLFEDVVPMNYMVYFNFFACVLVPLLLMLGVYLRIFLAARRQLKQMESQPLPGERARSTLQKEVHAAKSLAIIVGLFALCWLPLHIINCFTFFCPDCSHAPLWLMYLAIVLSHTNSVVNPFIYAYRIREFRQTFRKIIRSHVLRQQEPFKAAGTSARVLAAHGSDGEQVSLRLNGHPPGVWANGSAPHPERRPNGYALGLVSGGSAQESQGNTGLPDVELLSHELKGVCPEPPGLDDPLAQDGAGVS

Ki [1] [µM] | Ki [2] [µM] | SMILES
> 10 | > 10 | O=c1c2[nH]nnc2nc2n1CCCS2 [7,8-Dihydro-3H,6H-5-thia-1,2,3,4,8a-pentaaza-cyclopenta[b]naphthalen-9-one]
> 10 | > 10 | CC1CSc2nc3nn[nH]c3c(=O)n21 (centres undefined) [7-methyl-6,7-dihydro[1,3]thiazolo[3,2-a][1,2,3]triazolo[4,5-d]pyrimidin-9(3H)-one]
